The source of these data is US12448394B2, “Heterocyclic pyrazole derivatives as type III receptor tyrosine kinase inhibitors” (DEVELOPMENT CENTER FOR BIOTECHNOLOGY, priority 2019, dated 2025).

The target in one test is T1, FLT3-D835Y mutant kinase (Homo sapiens, UniProt P36888, D835Y).
T1 construct: purchased SignalChem
T1 sequence (P36888 27-993 D835Y): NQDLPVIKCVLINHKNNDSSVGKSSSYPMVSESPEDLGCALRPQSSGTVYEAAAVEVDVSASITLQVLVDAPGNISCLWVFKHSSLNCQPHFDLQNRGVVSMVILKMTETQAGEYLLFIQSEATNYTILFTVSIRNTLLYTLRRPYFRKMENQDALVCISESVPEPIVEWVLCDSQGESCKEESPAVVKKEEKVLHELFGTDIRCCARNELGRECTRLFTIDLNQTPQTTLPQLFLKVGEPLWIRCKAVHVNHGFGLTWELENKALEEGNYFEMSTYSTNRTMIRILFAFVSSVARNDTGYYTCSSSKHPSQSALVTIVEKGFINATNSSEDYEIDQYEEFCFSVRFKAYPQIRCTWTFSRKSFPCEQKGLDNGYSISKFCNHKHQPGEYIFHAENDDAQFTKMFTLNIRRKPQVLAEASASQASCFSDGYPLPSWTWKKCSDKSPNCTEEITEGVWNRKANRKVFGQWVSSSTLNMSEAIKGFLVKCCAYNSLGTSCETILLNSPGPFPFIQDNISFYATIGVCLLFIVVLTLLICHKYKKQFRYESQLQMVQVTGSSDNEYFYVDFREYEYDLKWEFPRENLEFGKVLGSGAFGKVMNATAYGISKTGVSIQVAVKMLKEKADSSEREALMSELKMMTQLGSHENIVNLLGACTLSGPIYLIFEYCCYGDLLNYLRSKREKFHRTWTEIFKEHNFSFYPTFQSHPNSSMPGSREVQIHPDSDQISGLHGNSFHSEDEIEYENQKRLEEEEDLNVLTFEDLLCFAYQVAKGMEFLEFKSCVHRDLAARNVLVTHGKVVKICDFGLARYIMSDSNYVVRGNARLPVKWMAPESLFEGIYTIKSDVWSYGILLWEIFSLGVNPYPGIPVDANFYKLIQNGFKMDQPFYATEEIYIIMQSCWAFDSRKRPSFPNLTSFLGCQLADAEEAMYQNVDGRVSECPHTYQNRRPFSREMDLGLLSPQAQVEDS
Kind of test: FLT3-D835Y mutant kinase assay (AlphaScreen). It is filed as biochemical. Particulars: read-out: Ranking of IC50 values, FLT3-D835Y. In outline: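 AlphaScreen readout of biotin-poly(Glu4:Tyr1) phosphorylation by 1 ng recombinant FLT3-D835Y. Conditions were 10 μM ATP, 10 mM MgCl2, MOPS pH 7.0, 30 min at 30 °C, EDTA stop. Compounds were serially diluted in duplicate to derive IC50.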
In general terms: Alpha assays give light when donor and acceptor beads are brought close together.

Test [1] has as its system HCC827 NSCLC cell with EGFR exon 19 deletion mutation. Kind of test: HCC827 cell proliferation assay (counter screen). Particulars: Homo sapiens, HCC827 cells, 72 hours treatment, CellTiter96, read-out: anti-proliferation activity HCC827 EGFR Exon19 del, IC50 ranking. In kind it is cell-based, human. In outline: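 HCC827 cells (EGFR exon 19 deletion) were seeded at 8000 cells/well in RPMI1640 with 10% FBS, then exposed to increasing compound concentrations for 72 h at 37 °C. Viability was read by CellTiter96 AQueous One (MTS), absorbance 490 nm after 2–4 h.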
On the technique in general: Counterscreens check selectivity or assay interference.

Test [2] has as its system A375 melanoma cell with BRAF V600E mutation. Kind of test: A375 cell proliferation assay (counter screen). It is filed as cell-based, human. Particulars: Homo sapiens, A-375, A375 cells, 72 hours treatment, CellTiter96, read-out: anti-proliferation activity A375 BRAF V600E, IC50 ranking. In outline:
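A375 cells (BRAF V600E) seeded at 2000 cells/well in DMEM with 10% FBS, settled overnight at 37° C, 5% CO2, then exposed to increasing compound concentrations for 72 hours. Viability read by MTS-type CellTiter96 AQueous reagent, absorbance at 490 nm after 2–4 hours.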

The next test addresses T2, PDGFRα kinase (Homo sapiens, UniProt P16234).
T2 construct: purchased SignalChem
Kind of test: PDGFRα kinase assay (AlphaScreen). It is filed as biochemical. The note with it: read-out: Ranking of IC50 values, PDGFRα. In outline:
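IC50 values came from duplicate serial dilutions, with product read by AlphaScreen. The reaction ran 30 min at 30 °C, then EDTA stop: 1.5 ng recombinant enzyme, biotin-poly(Glu4:Tyr1) substrate, 10 μM ATP, 10 mM MOPS pH 7.0, 10 mM MgCl2.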

Structures are written as SMILES.

T2 sequence (P16234 24-1089): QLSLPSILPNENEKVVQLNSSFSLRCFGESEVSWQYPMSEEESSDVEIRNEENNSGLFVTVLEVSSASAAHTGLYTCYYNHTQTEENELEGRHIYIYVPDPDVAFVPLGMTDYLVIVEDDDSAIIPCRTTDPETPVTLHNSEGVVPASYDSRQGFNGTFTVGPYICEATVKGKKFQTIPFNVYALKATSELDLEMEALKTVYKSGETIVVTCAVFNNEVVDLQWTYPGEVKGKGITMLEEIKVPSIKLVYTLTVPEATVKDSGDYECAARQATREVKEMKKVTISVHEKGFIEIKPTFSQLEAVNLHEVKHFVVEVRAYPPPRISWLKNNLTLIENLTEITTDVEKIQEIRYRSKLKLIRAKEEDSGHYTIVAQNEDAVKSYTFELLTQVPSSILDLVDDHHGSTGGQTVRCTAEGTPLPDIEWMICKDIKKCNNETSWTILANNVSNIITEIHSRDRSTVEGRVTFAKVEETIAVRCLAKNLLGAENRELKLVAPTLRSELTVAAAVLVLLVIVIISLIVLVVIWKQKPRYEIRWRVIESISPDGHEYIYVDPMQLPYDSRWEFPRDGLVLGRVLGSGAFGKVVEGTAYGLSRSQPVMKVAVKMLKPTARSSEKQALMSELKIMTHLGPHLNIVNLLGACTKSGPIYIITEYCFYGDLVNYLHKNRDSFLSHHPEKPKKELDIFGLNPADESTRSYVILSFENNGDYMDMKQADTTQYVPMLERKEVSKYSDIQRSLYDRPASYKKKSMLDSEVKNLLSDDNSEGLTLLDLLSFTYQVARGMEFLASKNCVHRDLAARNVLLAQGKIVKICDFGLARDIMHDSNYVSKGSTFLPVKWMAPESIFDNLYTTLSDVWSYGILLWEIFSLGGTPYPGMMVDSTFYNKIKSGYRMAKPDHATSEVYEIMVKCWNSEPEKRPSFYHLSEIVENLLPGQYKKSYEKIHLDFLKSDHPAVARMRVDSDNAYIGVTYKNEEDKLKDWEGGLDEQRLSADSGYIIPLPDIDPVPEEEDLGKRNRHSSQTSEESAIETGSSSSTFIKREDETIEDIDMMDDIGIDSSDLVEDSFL

For the compound `Cn1ncc2ccc(-c3n[nH]c4c3Cc3sc(N5CCOCC5=O)cc3-4)cc21` [Compound 79, 4-(3-(1-methyl-1H-indazol-6-yl)-1,4-dihydro-thieno[2′,3′:4,5]cyclopenta [1,2-c]pyrazol-6-yl) morpholin-3-one], the IC50 at FLT3-D835Y mutant kinase was < 1 nM; in test [1] it was 1000 to 10000 nM; in test [2], 1000 to 10000 nM; on PDGFRα kinase, 1 to 10 nM.

As for `Cn1ncc2ccc(-c3n[nH]c4c3Cc3sc(-c5ccc(CN6CCCOCC6)cc5)cc3-4)cc21` [Compound 97, 4-(4-(3-(1-methyl-1H-indazol-6-yl)-1,4-dihydro-thieno[2′,3′:4,5]cyclopenta [1,2-c]pyrazol-6-yl)benzyl)-1,4-oxazepane], the IC50 was < 1 nM on FLT3-D835Y mutant kinase, > 10000 nM in test [1], 1000 to 10000 nM in test [2] and 30 to 100 nM at PDGFRα kinase.

In the case of `Cn1ncc2ccc(-c3n[nH]c4c3Cc3sc(-c5ccc(C(=O)N6CCCCC6)cc5)cc3-4)cc21` [Compound 34, (4-(3-(1-methyl-1H-indazol-6-yl)-1,4-dihydro-thieno[2′,3′:4,5]cyclopenta [1,2-c]pyrazol-6-yl)phenyl)(piperidin-1-yl) methanone], the IC50 is 1 to 10 nM on FLT3-D835Y mutant kinase, > 10000 nM in test [1], > 10000 nM in test [2] and 30 to 100 nM on PDGFRα kinase.

With `Cn1ncc2ccc(-c3n[nH]c4c3Cc3sc(-c5ccc(S(=O)(=O)N6CCOCC6)cc5)cc3-4)cc21` [Compound 47, 4-((4-(3-(1-methyl-1H-indazol-6-yl)-1,4-dihydro-thieno[2′,3′:4,5]cyclopenta [1,2-c]pyrazol-6-yl)phenyl)sulfonyl) morpholine], the IC50 at FLT3-D835Y mutant kinase was < 1 nM; in test [1], > 10000 nM; in test [2], > 10000 nM; at PDGFRα kinase, 1 to 10 nM.

As to `Cn1ncc2ccc(-c3n[nH]c4c3Cc3sc(-c5cncc(C(=O)N6CCOCC6)c5)cc3-4)cc21` [Compound 31, (5-(3-(1-methyl-1H-indazol-6-yl)-1,4-dihydrothieno[2′,3′:4,5]cyclopenta[1,2-c]pyrazol-6-yl)pyridin-3-yl) (morpholino)methanone], the IC50 at FLT3-D835Y mutant kinase was < 1 nM; in test [1], 1000 to 10000 nM; in test [2] it was 1000 to 10000 nM; at PDGFRα kinase it was 100 to 300 nM.

Consider `C[C@@H]1CN(Cc2ccc(-c3cc4c(s3)Cc3c(-c5ccc6cnn(C)c6c5)n[nH]c3-4)cc2)C[C@H](C)O1` [Compound 54, (2S,6R)-2,6-dimethyl-4-(4-(3-(1-methyl-1H-indazol-6-yl)-1,4-dihydro-thieno[2′,3′:4,5]cyclopenta [1,2-c]pyrazol-6-yl)benzyl)morpholine], for which the IC50 on FLT3-D835Y mutant kinase is < 1 nM; in test [1] it was > 10000 nM; in test [2], > 10000 nM; at PDGFRα kinase, 1 to 10 nM.

Consider `Cn1ncc2ccc(-c3n[nH]c4c3Cc3sc(C5=CCN(C(=O)N6CCOCC6)CC5)cc3-4)cc21` [Compound 57, (4-(3-(1-methyl-1H-indazol-6-yl)-1,4-dihydro-thieno[2′,3′:4,5]cyclopenta [1,2-c]pyrazol-6-yl)-3,6-dihydropyridin-1(2H)-yl) (morpholino)methanone], for which the IC50 on FLT3-D835Y mutant kinase was < 1 nM; in test [1] it was > 10000 nM; in test [2], > 10000 nM; on PDGFRα kinase, 10 to 30 nM.

Regarding `CC(C)n1ncc2ccc(-c3n[nH]c4c3Cc3sc(-c5ccc(CN6CCOCC6)cc5)cc3-4)cc21` [Compound 42, 4-(4-(3-(1-isopropyl-1H-indazol-6-yl)-1,4-dihydro-thieno[2′,3′:4,5]cyclopenta [1,2-c]pyrazol-6-yl)benzyl)morpholine], the IC50 on FLT3-D835Y mutant kinase is 1 to 10 nM; in test [1], > 10000 nM; in test [2], > 10000 nM; at PDGFRα kinase, 10 to 30 nM.

Turning to `Cn1ncc2ccc(-c3n[nH]c4c3Cc3sc(-c5ccc(C(=O)N6CCCC6)cc5)cc3-4)cc21` [Compound 38, (4-(3-(1-methyl-1H-indazol-6-yl)-1,4-dihydro-thieno[2′,3′:4,5]cyclopenta [1,2-c]pyrazol-6-yl)phenyl)(pyrrolidin-1-yl) methanone], the IC50 at FLT3-D835Y mutant kinase is 1 to 10 nM; in test [1], > 10000 nM; in test [2] it was > 10000 nM; on PDGFRα kinase, 10 to 30 nM.

In the case of `C[C@@H]1CN(C(=O)c2ccc(-c3cc4c(s3)Cc3c(-c5ccc6cnn(C)c6c5)n[nH]c3-4)cc2)C[C@H](C)O1` [Compound 19, ((2S,6R)-2,6-dimethyl-morpholino)(4-(3-(1-methyl-1H-indazol-6-yl)-1,4-dihydrothieno[2′,3′:4,5]cyclopenta[1,2-c]pyrazol-6-yl)phenyl)methanone], the IC50 was 1 to 10 nM on FLT3-D835Y mutant kinase, > 10000 nM in test [1], > 10000 nM in test [2] and 1 to 10 nM on PDGFRα kinase.

Turning to `C[C@@H]1CN(Cc2ccc(-c3cc4c(s3)Cc3c(-c5ccc6cnn(C)c6c5)n[nH]c3-4)cn2)C[C@H](C)O1` [Compound 9, (2S,6R)-2,6-dimethyl-4-((5-(3-(1-methyl-lH-indazol-6-yl)-1,4-dihydro-thieno[2′,3′:4,5]cyclopenta [1,2-c]pyrazol-6-yl)pyridin-2-yl)methyl) morpholine], the IC50 on FLT3-D835Y mutant kinase was < 1 nM; in test [1], > 10000 nM; in test [2] it was > 10000 nM; on PDGFRα kinase it was 1 to 10 nM.

Consider `Cn1ncc2ccc(-c3n[nH]c4c3Cc3sc(C5CCNCC5)cc3-4)cc21` [Compound 96, 3-(1-methyl-1H-indazol-6-yl)-6-(piperidin-4-yl)-1,4-dihydrothieno [2′,3′:4,5]cyclopenta [1,2-c]pyrazole], for which the IC50 at FLT3-D835Y mutant kinase was < 1 nM; in test [1], 1000 to 10000 nM; in test [2] it was 1000 to 10000 nM; on PDGFRα kinase, 1 to 10 nM.

As to `COc1cc(CN2CCOCC2)ccc1-c1cc2c(s1)Cc1c(-c3ccc4cnn(C)c4c3)n[nH]c1-2` [Compound 29, 4-(3-methoxy-4-(3-(1-methyl-1H-indazol-6-yl)-1,4-dihydrothieno [2′,3′:4,5]cyclopenta[1,2-c]pyrazol-6-yl)benzyl) morpholine], the IC50 on FLT3-D835Y mutant kinase is < 1 nM; in test [1] it was > 10000 nM; in test [2], > 10000 nM; at PDGFRα kinase it was 10 to 30 nM.

For `CC(c1ccc(-c2cc3c(s2)Cc2c(-c4ccc5cnn(C)c5c4)n[nH]c2-3)cc1)N1CCOCC1` (stereo not shown) [Compound 20, 4-(1-(4-(3-(1-methyl-1H-indazol-6-yl)-1,4-dihydro-thieno[2′,3′:4,5]cyclopenta [1,2-c]pyrazol-6-yl)phenyl)ethyl)morpholine], the IC50 on FLT3-D835Y mutant kinase is 1 to 10 nM; in test [1], > 10000 nM; in test [2], > 10000 nM; on PDGFRα kinase, 1 to 10 nM.

In the case of `Cn1ncc2ccc(-c3n[nH]c4c3Cc3sc(-c5ccc(CN6CCOCC6)cc5)cc3-4)cc21` [Compound 8, 4-(4-(3-(1-methyl-1H-indazol-6-yl)-1,4-dihydro-thieno[2′,3′:4,5]cyclopenta [1,2-c]pyrazol-6-yl)benzyl) morpholine], the IC50 at FLT3-D835Y mutant kinase is 1 to 10 nM; in test [1], > 10000 nM; in test [2], > 10000 nM; on PDGFRα kinase, 1 to 10 nM.

For `Cn1ncc2ccc(-c3n[nH]c4c3Cc3sc(-c5ccc(CN6CCCC6)cc5)cc3-4)cc21` [Compound 99, 3-(1-methyl-1H-indazol-6-yl)-6-(4-(pyrrolidin-1-ylmethyl)phenyl)-1,4-dihydrothieno[2′,3′:4,5] cyclopenta[1,2-c]pyrazole], the IC50 at FLT3-D835Y mutant kinase is < 1 nM; in test [1] it was > 10000 nM; in test [2] it was > 10000 nM; at PDGFRα kinase, 1 to 10 nM.
